Measured values published in patent publication US7902373B2 (Pfizer Inc, priority 2006, dated 2011).

Target: human recombinant H-PGDS (Homo sapiens, UniProt O60760)
Assay: Fluorescence intensity h-PGDS TBA enzyme assay
Format: biochemical
Settings: Examples up to 622 (and 3a, 3b)

Chain of human recombinant H-PGDS (O60760 whole entry): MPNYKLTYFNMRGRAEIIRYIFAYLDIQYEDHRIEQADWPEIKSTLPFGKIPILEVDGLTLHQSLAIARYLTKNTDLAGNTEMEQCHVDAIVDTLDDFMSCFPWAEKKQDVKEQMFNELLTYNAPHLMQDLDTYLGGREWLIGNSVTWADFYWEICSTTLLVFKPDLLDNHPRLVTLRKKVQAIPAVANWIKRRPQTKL

IC50 [nM] | SMILES
1.24 | CN(CC1CC1)C(=O)c1ccc(N2CCC(NC(=O)c3ccc(-c4cccc(F)c4)nc3)CC2)nc1 [Example 574, N-(Cyclopropylmethyl)-6-[4-({[6-(3-fluorophenyl)pyridin-3-yl]carbonyl}amino)piperidin-1-yl]-N-methylnicotinamide]
2.24 | CC(C)CN(C)C(=O)c1ccc(N2CCC(NC(=O)c3ccc(-c4cccc(F)c4)nc3)CC2)nc1 [Example 575, 6-[4-({[6-(3-Fluorophenyl)pyridin-3-yl]carbonyl}amino)piperidin-1-yl]-N-isobutyl-N-methylnicotinamide]
0.561 | CN(CCC#N)C(=O)c1ccc(N2CCC(NC(=O)c3ccc(-c4cccc(F)c4)nc3)CC2)nc1 [Example 576, N-(2-Cyanoethyl)-6-[4-({[6-(3-fluorophenyl)pyridin-3-yl]carbonyl}amino)piperidin-1-yl]-N-methylnicotinamide]
1.48 | O=C(NC1CCN(CC(F)(F)F)CC1)c1ccc(N2CCC(NC(=O)c3ccc(-c4cccc(F)c4)nc3)CC2)nc1 [Example 577, 6-(3-Fluorophenyl)-N-{1-[5-({[1-(2,2,2-trifluoroethyl)piperidin-4-yl]amino}carbonyl)pyridin-2-yl]piperidin-4-yl}nicotinamide]
0.35 | O=C(NC1CCN(c2cccnn2)CC1)c1ccc(-c2cccc(F)c2)nc1 [Example 580, 6-(3-Fluorophenyl)-N-(1-pyridazin-3-ylpiperidin-4-yl)nicotinamide]
1.05 | O=C(NC1CCN(CC(F)(F)F)CC1)c1ccc(-c2cc(F)ccc2F)nc1 [Example 583, 6-(2,5-Difluorophenyl)-N-[1-(2,2,2-trifluoroethyl)piperidin-4-yl]nicotinamide]
0.787 | CCOC(=O)N1CCC(NC(=O)c2ccc(-c3ccccc3F)nc2)CC1 [Example 586, Ethyl 4-({[6-(2-fluorophenyl)pyridin-3-yl]carbonyl}amino)piperidine-1-carboxylate]

Continued, molecule first:

SMILES | IC50 [nM]
CCCN(C)C(=O)c1ccc(N2CCC(NC(=O)c3ccc(-c4cccc(F)c4)nc3)CC2)nc1 [Example 572, 6-[4-({[6-(3-Fluorophenyl)pyridin-3-yl]carbonyl}amino)piperidin-1-yl]-N-methyl-N-propylnicotinamide] | 5.25
O=C(NC1CCN(c2ccc(C(=O)N3CCSC3)cn2)CC1)c1ccc(-c2cccc(F)c2)nc1 [Example 573, 6-(3-Fluorophenyl)-N-{1-[5-(1,3-thiazolidin-3-ylcarbonyl)pyridin-2-yl]piperidin-4-yl}nicotinamide] | 1.35
CC1C=CC(C)N1C(=O)c1ccc(N2CCC(NC(=O)c3ccc(-c4cccc(F)c4)nc3)CC2)nc1 (stereo not drawn) [Example 578, N-(1-{5-[(2,5-Dimethyl-2,5-dihydro-1H-pyrrol-1-yl)carbonyl]pyridin-2-yl}piperidin-4-yl)-6-(3-fluorophenyl)nicotinamide] | 3.1
O=C(NC1CCN(c2ncc3c(n2)CCOC3)CC1)c1ccc(-c2cccc(F)c2)nc1 [Example 579, N-[1-(7,8-Dihydro-5H-pyrano[4,3-d]pyrimidin-2-yl)piperidin-4-yl]-6-(3-fluorophenyl)nicotinamide] | 1.05
CCOC(=O)N1CCC(NC(=O)c2ccc(-c3cc(F)ccc3F)nc2)CC1 [Example 584, Ethyl 4-({[6-(2,5-Difluorophenyl)pyridine-3-yl]carbonyl}amino)piperidine-1-carboxylate] | 1.38
O=C(NC1CCN(CC(F)(F)F)CC1)c1ccc(-c2ccccc2F)nc1 [Example 585, 6-(2-Fluorophenyl)-N-[1-(2,2,2-trifluoroethyl)piperidin-4-yl]nicotinamide] | 0.734
O=C(NC1CCN(Cc2ccccn2)CC1)c1ccc(-c2ccccc2F)nc1 [Example 587, 6-(2-Fluorophenyl)-N-[1-(pyridin-2-ylmethyl)piperidin-4-yl]nicotinamide] | 1.19
O=C(NC1CCN(Cc2cccc(F)c2)CC1)c1ccc(-c2ccccc2F)nc1 [Example 588, N-[1-(3-Fluorobenzyl)piperidin-4-yl]-6-(2-fluorophenyl)nicotinamide] | 0.621
